Results on 2 compounds are retold here after US11400089B2, “Multikinase inhibitors and uses in reproductive and digestive tract fibrosis” (AIVIVA BIOPHARMA, INC., priority 2017, dated 2022).

Assay [1] relates to LL37-induced inflammation. Briefly: intradermal LL37 injection-induced inflammation model in mice, histopathology (Example 7). In kind it is in vivo. The settings on record: single intradermal injection 1.6 mg, FIG. 13. How it is done: In our study, mice were injected subcutaneously with 40 μL of LL-37 (3.3 mg/mL) to induce inflammatory reactions. Immediately following the LL-37 injection, axitinib, nintedanib, and lenvatinib were individually administered as a single intradermal injection (1.6 mg). LL-37 injection was repeated every 12 hours for a total of 4 injections. Endotoxin-free water and dexamethasone (3 mg/kg by intraperitoneal injection, twice), respectively, were used as negative and positive control groups.
At 48 hours after the initial LL-37 injection, the dorsal skin was photographed, and the severity of skin lesions were scored for redness and measured for areas of involvement.
The tissue samples were analyzed for inflammation characteristics. Histopathology endpoints included inflammation, and CD4+ and CD8+ T-lymphocyte immunostaining. For inflammation scores, tissues were examined histologically and scored for inflammatory cell infiltrate.

Assay [2] relates to testosterone and phenylephrine induced benign prostate hyperplasia. Briefly: testosterone and phenylephrine induced benign prostate hyperplasia in rats (Example 3). In kind it is in vivo, Male Wistar rats. How it is done:
This study was conducted to determine the effects of multikinase inhibitors and vehicle on testosterone and phenylephrine induced benign prostate hyperplasia in rats. Male Wistar rats were induced with testosterone (2 mg/kg) plus phenylephrine (5 mg/kg) administered daily by subcutaneous injection on days 5 through 32. Vehicle or test compounds (all 1% w/v), nintedanib, sunitinib or lenvatinib and doxazosin mesylate, were administered by intra-prostate injection (0.4 ml) in dorsolateral and ventral lobes on days 1 and 18. Animals were euthanized on day 32.
At necropsy, the ventral and dorsolateral lobes of the prostate were separated and then cut into halves. The left halves were fixed in 10% neutral buffered formalin, sectioned, and stained with Hematoxylin and Eosin (H&E). Histological changes in these sections were scored. Epithelial hyperplasia was recognized as an increase in epithelial cells within normal-appearing gland profiles, primarily reflected by stratification of epithelial cells and increased presence of epithelial tufting and papillary projections. A severity grade of 0 (not present) through 5 (severe) was assigned to each sample.

Assay [3] concerns TGF beta 1 protein levels. Briefly: TGF beta 1 protein level (ELISA) in pig linear incision wound model (Example 6). In kind it is in vivo, Gottingen minipigs. The settings on record: 16 mg per wound site intradermal; Days 4, 7 and 9; FIG. 11. How it is done:
Full-thickness linear incision wounds were created in Gottingen minipigs on Day 1. 10 wounds approximately 3 cm in length and spaced at least 5 cm apart were created on the dorsal surface of the animals, perpendicular to the spine. Test agents included nintedanib (2%), lenvatinib (2%), sorafenib (1%), axitinib (2%) and vehicle control. Test agents were administered by intradermal injection immediately after wound creation. The dose of nintedanib, lenvatinib, sorafenib, or axitinib was 16 mg per wound site. Three minipigs were dosed in a similar manner. One minipig was sacrificed on Day 4, one on Day 7, and one on Day 9.
At the time of sacrifice, two dermal punch biopsies (4 mm) from each side of the wound sites were collected. Two biopsies were flash frozen in liquid nitrogen and stored at −80° C. prior to processing by protein extraction and ELISA (enzyme-linked immunosorbent assay) analysis. TGF beta protein levels were measured on Days 4, 7 and 9.
(ELISA stands for enzyme-linked immunosorbent assay.)

Assay [4] relates to full-thickness dermal wounds. Description: full-thickness dermal wounds in rabbit ear, histopathology (Example 5). The class given is in vivo, New Zealand White rabbits. Set-up: average total score of test wounds lower than untreated/control wounds by / Neovascularization (histopathology score, treated mean) / Fibrosis/Collagen (histopathology score, treated mean) / Reepithelialization (histopathology score, treated mean) / Total Score (histopathology, treated mean): scale not given here. The settings on record: for Fibrosis/Collagen (histopathology score, treated mean) / Neovascularization (histopathology score, treated mean) / Reepithelialization (histopathology score, treated mean) / Total Score (histopathology, treated mean): 1% intradermal dosing days 15 and 29, Day 42; for Fibrosis/Collagen (histopathology score, treated mean) / Neovascularization (histopathology score, treated mean) / Reepithelialization (histopathology score, treated mean) / Total Score (histopathology, treated mean) / angiogenesis and fibrosis at treated trauma sites (histopathology summary) / fibrosis compared with control wound sites / neovascularization compared with untreated wounds / scar formation overall compared with control sites: rabbit ear wound. The procedure: Test compounds were examined in full-thickness dermal wounds in rabbits. Seven male New Zealand White rabbits, ranging in body weight from 3.03 to 3.40 kg were used in this study. Four wounds were placed on the ventral surface of both ears using an 8 mm skin punch biopsy. Axitinib (1.0%), nintedanib (1.0%), lenvatinib (1.0%), sorafenib (1.0%) and sunitinib (1.0%) were administered by intradermal or intralesional injection on days 15 and 29 following surgery. Animals were euthanized on Day 42 and trauma sites were harvested and divided in half. One half was preserved in formalin for histological examination and the other half frozen for TGF beta analysis. Tissue H&E staining was evaluated semi-quantitatively for inflammation and neovascularization. Tissue fibrosis and collagen organization were evaluated by Mason's trichrome staining. Scores for four intradermal sites receiving test articles were averaged for each rabbit. Most scar tissues were composed of neovascularization, fibroblast hyperplasia, collagen disorganization and re-epithelialization.

Assay [5] deals with TGF beta mRNA expression. Description: TGF beta mRNA expression in rabbit dermal wound model (Example 5). In kind it is in vivo, New Zealand White rabbits. The note with it: 1% intradermal days 15 and 29; Day 42; FIG. 10. How it is done:
Test compounds were examined in full-thickness dermal wounds in rabbits. Seven male New Zealand White rabbits, ranging in body weight from 3.03 to 3.40 kg were used in this study. Four wounds were placed on the ventral surface of both ears using an 8 mm skin punch biopsy. Axitinib (1.0%), nintedanib (1.0%), lenvatinib (1.0%), sorafenib (1.0%) and sunitinib (1.0%) were administered by intradermal or intralesional injection on days 15 and 29 following surgery. Animals were euthanized on Day 42 and trauma sites were harvested and divided in half. One half was preserved in formalin for histological examination and the other half frozen for TGF beta analysis.
TGF beta mRNA expression in treated trauma samples was compared to expression in untreated samples. In general, TGF beta expression in treated samples was lower relative to untreated trauma samples.

The test system of assay [6] is suture induced ocular fibrosis. Briefly: suture induced ocular fibrosis model in rabbits (Example 4). The class given is in vivo. The settings on record: for areas of neovascularization on the corneal surface: 0.3% topical 35 μL/eye three times daily for 10 days, FIG. 8; for fibroplasia and/or collagen density (histological staining) / alpha SMA staining (immunohistochemical analysis): 0.3% topical three times daily for 10 days, FIG. 9; for fibroplasia and/or collagen density (histological staining): Day 11; for alpha SMA staining (immunohistochemical analysis): relative to vehicle. The procedure:
A study was conducted to determine the potential beneficial effects of topical administration of test compounds and vehicle in a suture induced ocular fibrosis model in rabbits. Sutures were placed intrastromally, under a microscope, in the cornea of rabbits. In each eye, one 9.0 silk suture was placed, in a vertical position, temporal to the center of the cornea and a second suture was placed nasal to the corneal center. Each suture had two stromal incursions approximately 2 mm from the limbus. Test compounds having a certain spectrum of multikinase inhibition activities or vehicle were topically instilled (35 μL/eye) in the eyes three times daily for 10 days following the day of surgery. The treatment groups include vehicle, axitinib (0.3%), nintedanib (0.3%), pirfenidone (1%), riociguat (0.3%), sorafenib (0.3%) and lenvatinib (0.3%). Six left eyes were used per treatment group.
During the in-life phase, gross ocular observations of very slight to moderate conjunctival congestion and swelling were similar among groups, including the vehicle control. The animals were sacrificed on Day 11 and eyes enucleated and dissected for histopathological evaluation.

The test system of assay [7] is testosterone and phenylephrine induced benign prostate hyperplasia. Briefly: testosterone and phenylephrine induced benign prostate hyperplasia in rats (Example 1). In kind it is in vivo, Male Wistar rats. How it is done:
Wistar and Sprague-Dawley strains of rats are susceptible to developing benign prostatic hyperplasia after treatment with exogenous testosterone and can serve as a model of hyperplasia induced by endogenous hormones, i.e., BPH in males and uterine fibroids (UF) in females. A study was conducted to determine the effects of test compounds and vehicle on testosterone and phenylephrine induced benign prostate hyperplasia in rats. Male Wistar rats were induced with testosterone (2 mg/kg) plus phenylephrine (5 mg/kg) administered daily by subcutaneous injection on days 1 through 28. Vehicle or the multikinase test compounds, axitinib (1%), sorafenib (1%), pirfenidone (2.5%) and riociguat (1%), were administered by intra-prostate injection (0.2 mL) on days 15 and 29. Animals were euthanized on day 42. Body weights were determined. Prostate glands were harvested and weighed.
Prostate weight/100 g body weight was determined for each treatment group (FIG. 1). […] Rather, only multikinase inhibitors with a certain inhibitory spectrum would work.
At necropsy, the dorsolateral and ventral lobes of the prostate were separated and cut into halves. The left halves were fixed in 10% neutral buffered formalin, sectioned, and stained with Hematoxylin and Eosin (H&E). Glandular hyperplasia was recognized as an increase in epithelial cells within normal appearing gland profiles, reflected by stratification of epithelial cells and increased presence of epithelial tufting and papillary projections (FIG. 2). Stromal changes were examined microscopically. These changes included inflammation and tissue fibroplasia. Each section was given a severity score ranging from 0 (not present) through 5 (severe).

The structures appear in SMILES notation.

With `COC(=O)c1ccc2c(c1)NC(=O)/C2=C(\Nc1ccc(N(C)C(=O)CN2CCN(C)CC2)cc1)c1ccccc1` [nintedanib], the “inflammation scores (inflammatory cell infiltrate)” value in assay [1] was “prominent reductions in the scores of inflammation”. Also, the “inhibition of cellular proliferation in testosterone/phenylephrine induced benign prostate hyperplasia model” value in assay [2] (1% intra-prostate days 1 and 18, rat) is “effective inhibitors of cellular proliferation”. The “epithelial (glandular) hyperplasia score, dorsolateral prostate, representative image” value in assay [2] (TE+PE induced rats, intra-prostate 0.4 ml days 1 and 18, day 32, grade 0 (not present) to 5 (severe), induced vehicle score=4, FIG. 4) amounted to 3. In addition, the “epithelial (glandular) hyperplasia score, ventral prostate, representative image” value in assay [2] (TE+PE induced rats, intra-prostate 0.4 ml days 1 and 18, day 32, grade 0 to 5, induced vehicle score=4, FIG. 5) amounted to 3. In addition, in assay [3], the “TGF beta 1 protein levels in wound” value is on record as “time-dependent inhibition of TGF beta 1 protein levels”. Further, in assay [4], the “Fibrosis/Collagen (histopathology score, treated mean)” value is on record as 3; the “Neovascularization (histopathology score, treated mean)” value stood at 1; the “Reepithelialization (histopathology score, treated mean)” value was 0.5; the “Total Score (histopathology, treated mean)” value turned out to be 4.5. Besides, the “average total score of test wounds lower than untreated/control wounds by” value in assay [4] (1% intradermal, difference treated vs control) is 1.5. Besides, in assay [4] (1% intradermal), the “angiogenesis and fibrosis at treated trauma sites (histopathology summary)” value was “decreased angiogenesis and fibrosis”; the “fibrosis compared with control wound sites” value is given as “about the same fibrosis as untreated wounds”; the “neovascularization compared with untreated wounds” value is on record as “much less neovascularization”; the “scar formation overall compared with control sites” value was “less scar formation compared with the control sites”. In assay [5], the “mean folds of TGF beta mRNA expression vs untreated trauma samples” value is “lower than the expression level in untreated trauma samples”. In addition, in assay [6], the “areas of neovascularization on the corneal surface” value is “efficacious in reducing the areas of neovascularization”, the “fibroplasia and/or collagen density (histological staining)” value was “significantly reduced fibroplasia and/or collagen density” and the “alpha SMA staining (immunohistochemical analysis)” value is recorded as “significantly reduced alpha SMA staining”.
For `CNC(=O)c1cc(Oc2ccc(NC(=O)Nc3ccc(Cl)c(C(F)(F)F)c3)cc2)ccn1` [sorafenib], in assay [3], the “TGF beta 1 protein levels in wound” value is recorded as “much less effective”. In assay [4], the “Fibrosis/Collagen (histopathology score, treated mean)” value is given as 2.5; the “Neovascularization (histopathology score, treated mean)” value was determined as 3; the “Reepithelialization (histopathology score, treated mean)” value was 0.3; the “Total Score (histopathology, treated mean)” value turned out to be 5.8. In assay [4] (1% intradermal), the “angiogenesis and fibrosis at treated trauma sites (histopathology summary)” value is “do not show any reduction in angiogenesis and fibrosis”; the “fibrosis compared with control wound sites” value was “similar, or increased fibrosis compared to control sites”; the “neovascularization compared with untreated wounds” value is listed as “slightly increased neovascularization”; the “scar formation overall compared with control sites” value was “does not appear to have reduced scar formation”. Also, the “mean prostate weight (prostate weight/100 g body weight)” value in assay [7] (TE+PE induced rats, 1% test article, intra-prostate 0.2 mL days 15 and 29, day 42, compared to vehicle-treated group 1, FIG. 1) is given as “did not show a reduction in the mean prostate weight”. Besides, the “epithelial hyperplasia score, representative image of dorsolateral prostate” value in assay [7] (TE+PE induced rats, axitinib 1%, sorafenib 1%, pirfenidone 2.5%, severity score 0 (not present) to 5 (severe), induced vehicle group score=2, FIG. 2) was found to be 2. Also, in assay [7] (induced rats, intra-prostate days 15 and 29, axitinib, sorafenib, riociguat 1%, pirfenidone 2.5%, FIG. 3), the “mean dorsolateral prostate hyperplasia scores compared to vehicle treatment” value is “did not lead to reduction in hyperplasia”. The “mean folds of TGF beta mRNA expression vs untreated trauma samples” value in assay [5] was “do not show mean TGF beta expression levels significantly different from the untreated trauma samples”. Moreover, in assay [6], the “areas of neovascularization on the corneal surface” value was “efficacious in reducing the areas of neovascularization”, the “fibroplasia and/or collagen density (histological staining)” value was “little or no effect on fibroplasia or collagen formation” and the “alpha SMA staining (immunohistochemical analysis)” value is given as “no effect on alpha SMA relative to vehicle treatment”.
